Legend:
PD-1/PD-L1 = PD-1/PD-L1 (Homo sapiens, UniProt Q9NZQ7); test: PD-1/PD-L1 biochemical protein-protein interaction assay (ALPHA); format: binding; conditions: 0.3 nM His tagged PD-L1, 2.5 nM biotinylated Fc-PD-1, 60 minutes at 25° C., read-out: IC50 PD-L1-PD-1 Alpha IC50-mono PD-L1-fcP-D1
Procedure, shortened: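 Compound blockade of the PD-1/PD-L1 extracellular-domain interaction measured as reduced ALPHA signal after 60 min at 25 °C, pH 7.4 Hepes buffer with EDTA, Tween 20 and BSA. Final proteins: His-tagged PD-L1 0.3 nM, biotinylated Fc-PD-1 2.5 nM; four-parameter curve fit gives IC50.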

PD-1/PD-L1 interaction = biological target: T1, PD-1/PD-L1 interaction (Homo sapiens, UniProt Q9NZQ7); test: PD-1/PD-L1 NFAT reporter co-culture assay; format: cell-based; conditions: Jurkat PD-1 NFAT-luciferase cells co-cultured with aAPC-PD-L1 CHO cells, 6 hrs at 37° C.; read-out: EC50 NFAT Luciferase
T1 construct: expressed in transfected cells; host or cells: CHO cells (aAPC-PD-L1) co-cultured with Jurkat cells overexpressing PD-1 and an NFAT-luciferase reporter
T1 sequence (Q9NZQ7 19-290): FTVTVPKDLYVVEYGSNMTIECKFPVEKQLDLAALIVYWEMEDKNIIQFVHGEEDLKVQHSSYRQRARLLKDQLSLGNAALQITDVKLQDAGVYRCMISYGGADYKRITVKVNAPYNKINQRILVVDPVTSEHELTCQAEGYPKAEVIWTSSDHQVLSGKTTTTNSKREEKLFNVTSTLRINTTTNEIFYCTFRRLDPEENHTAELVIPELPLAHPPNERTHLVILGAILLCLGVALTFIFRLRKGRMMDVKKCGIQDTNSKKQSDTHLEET
Procedure, shortened: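 Jurkat cells overexpressing PD-1 with NFAT-luciferase mixed with compounds and plated onto CHO aAPCs expressing anti-CD3 and PD-L1, RPMI with 2% FBS. Co-culture 6 h at 37 °C; luminescence read with ONE-Glo. EC50 from four-parameter fit.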

PD-L1 = biological target: T2, PD-L1 (Homo sapiens, UniProt Q9NZQ7); test: PD-L1/PD-L1 dimerization biochemical protein-protein interaction assay (ALPHA); format: binding; conditions: compound-induced PD-L1 dimerization, head prints '1 nM' (0.5 nM His-tagged PD-L1 and 0.5 nM FLAG-tagged PD-L1), read-out: AC50 PDL1 Dimer Alpha 1 nM
T2 construct: determine if they can specifically dimerize the extracellular domains of PD-L1
T2 sequence (Q9NZQ7 19-238 limits assumed): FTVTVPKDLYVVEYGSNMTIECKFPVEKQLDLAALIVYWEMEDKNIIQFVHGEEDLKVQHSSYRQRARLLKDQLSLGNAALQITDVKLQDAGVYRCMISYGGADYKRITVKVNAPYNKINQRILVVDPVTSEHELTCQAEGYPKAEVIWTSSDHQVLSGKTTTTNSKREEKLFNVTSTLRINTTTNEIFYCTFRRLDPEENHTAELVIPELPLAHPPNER
T2 sequence (Q9NZQ7 19-238 limits assumed): as above
Procedure, shortened: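 After 2 h at 25 °C with compound, His- and FLAG-tagged PD-L1 ECDs (each 0.5 nM final; 25 mM Hepes pH 7.4, 150 mM NaCl) were detected by sequential anti-His acceptor and anti-FLAG donor bead incubations. Dose-response curves fitted to four-parameter equation for AC50.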

Sequence of PD-1/PD-L1 (Q9NZQ7 19-238 limits assumed): as above

| Structure (SMILES) | IC50 (PD-1/PD-L1) | EC50 (PD-1/PD-L1 interaction) | AC50 (PD-L1) |
| --- | --- | --- | --- |
| Cc1c(COc2cc(OCc3cncc(C#N)c3)c(CNC[C@@H](O)CC(=O)O)cc2Cl)cccc1-c1cccc(-c2ccc(C3=NCCN3)c(OCCCC#N)n2)c1C [Example 466] | 0.064 nM | 93 nM | 44.1 nM |
| Cc1c(COc2cc(OCc3cc(S(C)(=O)=O)cc(S(C)(=O)=O)c3)c(CN[C@@](C)(CO)C(=O)O)cc2Cl)cccc1-c1cccc(-c2ccc(CCCN3CC[C@@H](O)C3)cc2)c1C [Example 467] | 0.161 nM | 197 nM | 111 nM |
| COc1ccc2cc(-c3cccc(-c4cccc(COc5cc(OCc6cncc(C#N)c6)c(CNC[C@@H](O)CC(=O)O)cc5Cl)c4C)c3C)ccc2c1CNC[C@@H](O)CC(=O)O [Example 468] | 0.558 nM | 183 nM | 131 nM |
| Cc1c(COc2cc(OCc3cncc(C#N)c3)c(CN[C@@](C)(CO)C(=O)O)cc2Cl)cccc1-c1cccc(-c2ccc3c(c2)ncc(=O)n3CCN(C)C)c1C [Example 469] | 0.064 nM | 125 nM | 73.5 nM |
| Cc1c(COc2cc(OCc3cncc(C(N)=O)c3)c(CN[C@@](C)(CO)C(=O)O)cc2Cl)cccc1-c1cccc(-c2ccc3c(c2)[C@@H](O)C[C@H]3N)c1C [Example 470] | 0.096 nM | 217 nM | 127 nM |
| Cc1c(COc2nc(OCc3cc(C#N)cc(C#N)c3)c(CNC(C)(CO)C(=O)O)cc2Cl)cccc1-c1cccc(-c2ccc(OCCNCCO)cc2)c1C (stereo not drawn) [Example 471] | 0.205 nM | 144 nM | 80 nM |
| Cc1c(COc2cc(OCc3cncc(C#N)c3)c(CNC[C@@H](O)CC(=O)O)cc2Cl)cccc1-c1cccc(-c2ccc3c(c2)CC(NCCO)C3)c1C (stereo partly drawn) [Example 473] | 0.159 nM | 86 nM | 76.8 nM |
| Cc1c(COc2cc(OCc3cncc(C#N)c3)c(CNC[C@@H](O)CC(=O)O)cc2Cl)cccc1-c1cccc(-c2ccc3c(c2)CC(NCC(=O)O)C3)c1C (stereo partly drawn) [Example 474] | 0.064 nM | 59 nM | 137 nM |
| Cc1c(COc2cc(OCc3cncc(C#N)c3)c(CN[C@@](C)(CO)C(=O)O)cc2Cl)cccc1-c1cccc(-c2ccc3c(cnn3CCN3CC[C@@H](O)C3)n2)c1C [Example 475] | 0.088 nM | 117 nM | 134 nM |
| Cn1cc(CN2CC3(CCC(=O)N3)C2)c2ccc(-c3cccc(-c4cccc(-c5ccc6c(CN7CC8(CCC(=O)N8)C7)cn(C)c6n5)c4Cl)c3Cl)nc21 [Example 476] | 1.11 nM | 196 nM | 149 nM |
| COc1cc(-c2cccc(-c3cccc(-c4ccc(CNC[C@@H]5CCC(=O)N5)c(OC)c4)c3Br)c2Br)ccc1CNC[C@@H]1CCC(=O)N1 [Example 477] | 1.04 nM | 179 nM | 360 nM |
| C[C@@](CO)(NCc1cc(Cl)c(OCc2cccc(-c3cccc(COc4cc(OCc5cncc(C#N)c5)c(CN[C@@](C)(CO)C(=O)O)cc4Cl)c3Br)c2Br)cc1OCc1cncc(C#N)c1)C(=O)O [Example 478] | 0.064 nM | 48 nM | 268 nM |
| N#Cc1cncc(COc2cc(OCc3cccc(-c4cccc(COc5cc(OCc6cncc(C#N)c6)c(CNC[C@@H](O)CC(=O)O)cc5Cl)c4Br)c3Br)c(Cl)cc2CNC[C@@H](O)CC(=O)O)c1 [Example 479] | 0.098 nM | 45 nM | 348 nM |
| Cc1c(COc2cc(OCc3cncc(C#N)c3)c(CNCCO)cc2Cl)cccc1-c1cccc(COc2cc(OCc3cncc(C#N)c3)c(CNCCO)cc2Cl)c1Br [Example 480] | 1.12 nM | 147 nM | 114 nM |
| Cc1c(COc2cc(OCc3cncc(C#N)c3)c(CN[C@@](C)(CO)C(=O)O)cc2Cl)cccc1-c1cccc(COc2cc(OCc3cncc(C#N)c3)c(CN[C@@](C)(CO)C(=O)O)cc2Cl)c1Br [Example 481] | 0.064 nM | 155 nM | 92.9 nM |
| Cc1c(COc2cc(OCc3cncc(C#N)c3)c(CNC(C)(C)C(=O)O)cc2Cl)cccc1-c1cccc(-c2ccc(CN(C)C)cc2)c1Br [Example 482] | 0.064 nM | 47 nM | 25.5 nM |
| Cc1c(COc2cc(OCc3cncc(C#N)c3)c(CN[C@@](C)(CO)C(=O)O)cc2Cl)cccc1-c1cccc(-c2ccc(CN(C)C)cc2)c1Br [Example 483] | 0.064 nM | 69 nM | 40.9 nM |
| Cc1c(COc2cc(OCc3cncc(C#N)c3)c(CNC[C@@H](O)CC(=O)O)cc2Cl)cccc1-c1cccc(-c2ccc(CN(C)C)cc2)c1Br [Example 484] | 0.205 nM | 138 nM | 108 nM |

| Structure (SMILES) | IC50 (PD-1/PD-L1) | EC50 (PD-1/PD-L1 interaction) | AC50 (PD-L1) |
| --- | --- | --- | --- |
| CS(=O)(=O)c1cncc(COc2nc(OCc3cccc(-c4cccc(-c5ccc(OCCNCCO)cc5)c4Cl)c3Cl)c(Cl)cc2CNC[C@@H](O)CC(=O)O)c1 [Example 485] | 0.321 nM | 200 nM | 61.3 nM |
| COc1nc(O[C@H]2CCc3c(-c4cccc(-c5cc(C)c(CNC[C@@H]6CCC(=O)N6)c(OC)n5)c4Cl)cccc32)c(Cl)cc1CN1CC(C(=O)O)C1 [Example 487] | 0.064 nM | 16 nM | 25.2 nM |
| COc1nc(O[C@H]2CCc3c(-c4cccc(-c5cc(C)c(CNC[C@@H]6CCC(=O)N6)c(OC)n5)c4Cl)cccc32)c(Cl)cc1CN1CC[C@@](C)(C(=O)O)C1 [Example 488] | 0.064 nM | 26 nM | 25.6 nM |
| COc1nc(O[C@H]2CCc3c(-c4cccc(-c5cc(C)c(CNC[C@@H]6CCC(=O)N6)c(OC)n5)c4Cl)cccc32)c(Cl)cc1CN1CC[C@](C)(C(=O)O)C1 [Example 489] | 0.064 nM | 18 nM | 18.3 nM |
| COc1nc(O[C@H]2CCc3c(-c4cccc(-c5cc(C)c(CNC[C@@H]6CCC(=O)N6)c(OC)n5)c4Cl)cccc32)c(Cl)cc1CN1CC[C@@H](C(=O)O)C1 [Example 490] | 0.064 nM | 19 nM | 14.1 nM |
| COc1nc(O[C@H]2CCc3c(-c4cccc(-c5cc(C)c(CNC[C@@H]6CCC(=O)N6)c(OC)n5)c4Cl)cccc32)c(Cl)cc1CN1CC[C@H](C(=O)O)C1 [Example 491] | 0.064 nM | 21 nM | 19.8 nM |
| Cc1c(COc2cc(OCc3cncc(C#N)c3)c(CNC[C@@H]3CCC(=O)N3)cc2Cl)cccc1-c1cccc(-c2ccc(CNC[C@@H]3CCC(=O)N3)cc2)c1C [Example 497] | 1.43 nM | 182 nM | 302 nM |
| Cc1c(COc2cc(OCc3cncc(C#N)c3)c(CN[C@@](C)(CO)C(=O)O)cc2Cl)cccc1-c1cccc(-c2cccc([C@@H](C)N)c2)c1C [Example 498] | 0.115 nM | 111 nM | 84.7 nM |
| Cc1c(COc2cc(OCc3cncc(C#N)c3)c(CN[C@@](C)(CO)C(=O)O)cc2Cl)cccc1-c1cccc(-c2cccc([C@H](C)N)c2)c1C [Example 499] | 0.093 nM | 59 nM | 86.5 nM |
| Cc1c(COc2cc(OCc3cncc(C#N)c3)c(CN[C@@](C)(CO)C(=O)O)cc2Cl)cccc1-c1cccc(-c2ccc(C3=NCCN3)cn2)c1C [Example 500] | 0.064 nM | 97 nM | 50.1 nM |
| COc1cc(-c2cccc(-c3cccc(COc4cc(OCc5cncc(C#N)c5)c(CN[C@@](C)(CO)C(=O)O)cc4Cl)c3C)c2C)ccc1C1=NCCN1 [Example 501] | 0.064 nM | 60 nM | 35.3 nM |
| COc1cc(-c2cccc(-c3cccc(COc4cc(OCc5cncc(C#N)c5)c(CNC[C@@H](O)CC(=O)O)cc4Cl)c3C)c2C)ccc1C1=NCCN1 [Example 502] | 0.081 nM | 100 nM | 85.2 nM |
| Cc1c(COc2cc(OCc3cncc(C#N)c3)c(CN[C@@](C)(CO)C(=O)O)cc2Cl)cccc1-c1cccc(-c2ccc(C3=NCCN3)cc2)c1C [Example 503] | 0.064 nM | 81 nM | 42.1 nM |
| COc1nc(-c2cccc(-c3cccc(COc4cc(OCc5cncc(C#N)c5)c(CN[C@@](C)(CO)C(=O)O)cc4Cl)c3C)c2C)ccc1C1=NCCN1 [Example 504] | 0.064 nM | 68 nM | 47.8 nM |
| COc1nc(-c2cccc(-c3cccc(COc4cc(OCc5cncc(C#N)c5)c(CNC[C@@H](O)CC(=O)O)cc4Cl)c3C)c2C)ccc1C1=NCCN1 [Example 505] | 0.064 nM | 80 nM | 55 nM |
| COc1cc(-c2cccc(-c3cccc(COc4cc(OCc5cncc(C#N)c5)c(CN[C@@](C)(CO)C(=O)O)cc4Cl)c3C)c2C)ccc1CN [Example 506] | 0.239 nM | 204 nM | 172 nM |
| COc1cc(-c2cccc(-c3cccc(COc4cc(OCc5cncc(C#N)c5)c(CNC[C@@H](O)CC(=O)O)cc4Cl)c3C)c2C)ccc1CN [Example 507] | 0.693 nM | 210 nM | 262 nM |
| COc1cc(-c2cccc(-c3cccc(COc4cc(OCc5cncc(C#N)c5)c(CN[C@@](C)(CO)C(=O)O)cc4Cl)c3C)c2C)ccc1CNCC1CCC(=O)N1 (stereo partly drawn) [Example 508] | 0.084 nM | 156 nM | 78 nM |

— patent US12590062B2, “PD-1/PD-L1 inhibitors” (Gilead Sciences, Inc., priority 2017, dated 2026)
